According to patent US5814600A, “Method and composition for treatment of insulin requiring mammals” (Amylin Pharmaceuticals Inc., priority 1994, dated 1998):
Where two headings read alike, the source gives them in different places. Values belong to the molecule of their own block, whether it stands above or below them.

What was measured:
rat soleus muscle = format: cell-based
Procedure: Male Harlan Sprague Dawley rats of approximately 200 g mass were used in order to maintain soleus muscle mass less than 40 mg. The animals were fasted for 4 hours prior to sacrifice by decapitation. The skin was stripped from the lower limb which was then pinned out on cork board. The tendo achilles was cut just above os […]. gastrocnemius reflected out from the posterior aspect of the tibia. M. soleus, a small […], 0.55 mm thick flat muscle on the bone surface of m. gastrocnemius was then stripped clear and the perimysium cleaned off using fine scissors and forceps. M. soleus was then split into equal parts using a blade passed antero-posteriorly through the belly of the muscle to obtain a total of 4 muscle strips from each animal. After dissecting the muscle from the animal, it was kept for a short period in physiological saline. The muscle was not held under tension, as reported in other methodologies since in our hands this had no demonstrable effect on the insulin-sensitivity of radioglucose incorporation into glycogen. Muscles were added to 50 mL Erlenmeyer flasks containing 10 mL of a pregassed Krebs-Ringer bicarbonate buffer containing (mM) NaCl 118.5; KCl 5.94; CaCl2 2.54; MgSO4 1.19; KH2 PO4 1.19; NaHCO3 25; glucose 5.5; and recombinant human insulin (Humulin-R, Eli Lilly, Ind.) and either synthetic rat (Bachem, Torrance, Calif. Lot# ZG485) or synthetic human amylin (Bachem, Torrance, Calif. Lot# ZH144) as detailed below. Methods used to determine the nature and purity of rat and human amylin included quantitative amino acid analysis, gas phase amino acid sequencing, reverse phase HPLC and fast-atom-bombardment mass spectrometry. […] Incorporation of mercury into rat amylin may be a feature of many commercially available batches that have already been used in published studies. Since the peptide was bioactive, its action in muscle was expected to at least qualitatively mimic that of true rat amylin. The mercuric method of cyclization was not used in the synthesis of human amylin, which is found by electrospray ionization mass spectrometry and atomic absorption spectroscopy to be mercury-free. Muscles were assigned to different flasks so that the four muscle pieces from each animal were evenly distributed among the different assay conditions. The incubation media were gassed by gently blowing carbogen (95% O2, 5% CO2) over the surface while it was continuously agitated at 37° C. in an oscillating water bath. pH of gassed media at 37° C. was verified as being between 7.1 and 7.4. After a half-hour preincubation, 0.5 μCi of [U-^14 C]-glucose was added to each flask for a further 60 minutes. Each muscle piece was then rapidly removed, trimmed of tendons, blotted, frozen in liquid N2, weighed and then stored at […] for subsequent determination of ^14 C-glycogen. The incubation medium was also frozen for subsequent analysis. The concentration of human amylin present in the medium at the end of the incubation was determined by radioimmunoassay in surfactant-containing buffer. For both human and rat amylin, the actual mass added to the incubation medium was determined by quantitative amino-acid analysis. Each frozen muscle specimen was placed in a vial with 1 mL 60% potassium hydroxide (wt/vol) and digested at 70° C. for 45 minutes under intermittent vigorous agitation. Dissolved glycogen was precipitated onto the walls of the vial by addition of 3 mL absolute ethanol and overnight cooling at -20° C. After centrifugation for 30 minutes at 2000 x-- g, the supernatant was gently aspirated, the glycogen was again washed with ethanol and centrifuged, the ethanol aspirated and the precipitate dried under vacuum. It was important to evaporate all ethanol to avoid quenching during scintillation counting. The remaining glycogen was redissolved in 1 mL water and 4 mL scintillation fluid and counted for ^14 C. […]

[1] = tested on: patients with juvenile-onset diabetes; test: 14-day clinical study: adverse events; format: in vivo, human
Description: In a 14-day double-blind, placebo controlled clinical study, for example, patients with juvenile-onset diabetes who continued their usual insulin therapy and self-injected tripro-amylin three times daily had lower average blood glucose levels after a test meal than did patients who received insulin and placebo. […] See also Table 2 below. […] These thrice-daily doses of tripro-amylin reflect per day dosages of, respectively, 90, 300, and 900 micrograms per patient. For a patient of average weight, about 70 kg, these reflect doses of 1.3 μg/kg/day, 4.3 μg/kg/day, and 12.9 μg/kg/day. An average per day insulin dose is about 50 units, or 2000 micrograms.
The only adverse events which led a limited number of patients to discontinue the study were gastrointestinal side effects, mainly nausea, which were more frequent only in those patients receiving higher doses of drug. About 20% of patients in the mid- and high-dose groups who reported nausea also experienced vomiting on one or more occasions.

[2] = tested on: patients with juvenile-onset diabetes; test: 14-day clinical study: insulin challenge to induce hypoglycemia; format: in vivo, human; conditions: after overnight fast, after 14 days of therapy
Description: Following an overnight fast, patients in the 14-day study were challenged with insulin twice: prior to the start of dosing, and after 14 days of placebo or tripro-amylin therapy. The insulin challenge was designed to pharmacologically induce hypoglycemia in a controlled and reproducible manner.

[3] = tested on: streptozotocin-diabetic rats; test: Liver glycogen in insulin-treated streptozotocin diabetic rats, daily s.c. amylin replacement; format: in vivo, rat; conditions: STZ diabetic rats, insulin replacement only
Procedure: There were 68 male Harlan Sprague Dawley rats (mass 301±3 g) in 8 treatment groups. Animals were housed at 22.7±0.8° C. in a 12:12 hour light:dark cycle (experiments being performed during the light cycle) and fed and watered ad libitum (Diet LM-485, Teklad, Madison, Wis.). The rats were sacrificed for harvesting of livers 4 to 5 hours into the light cycle.
Animals were injected with streptozotocin (Sigma Chemical Company, St Louis, Mo.: Sigma 50130) dissolved in water in a dose of 65 mg/kg into the lateral tail vein. […] Maintaining diabetic rats in this metabolic state optimizes survival. Following one week of established diabetes, animals received once daily s.c. injections of amylin vehicle (water for injection) for 5 days given at the time of the insulin injection.
These animals were treated identically to those in group 1 except that the daily subcutaneous injection contained 3 μg (n=5); 10 μg (n=12); 30 μg (n=5); 100 μg (n=5) or 300 μg (n=5) of rat amylin (Bachem lot# WG485^2/). The bioactivity of the peptide used in these experiments was first verified by bioassay, using inhibition of insulin-stimulated radioglucose incorporation into glycogen in the isolated stripped rat soleus muscle. […] The insulin dose in each of the groups of diabetic animals averaged 1.67 U/animal/day. There were no other observable differences in the required management of the different groups.
These animals were derived from the same stock and housed under the same conditions for the same time as those in groups 1-6, but were given no injections. 24 hours after the fifth daily injection of amylin or water (or an equivalent time after admission to the vivarium in the case of group 7 rats), the non-fasted rats were killed by decapitation and the livers immediately removed and frozen in liquid N2, weighed and stored for subsequent determination of glycogen concentration.
Whole livers were powdered while frozen. Approximately 200 mg of powder was further homogenized in 1.0 mL of 0.6M perchloric acid to denature enzymes. 200 μL of the homogenate was neutralized with 0.5 volumes of 1.0M KHCO3 in either of two acetate buffer solutions, one containing 2.0 mL of 200 mM acetate (pH4.8), the other containing the same but with 18.5 U/mL of amyloglucosidase (EC5 3.2.1.3, from Aspergillus nicer, Sigma A3423, Sigma Chemical Company, St Louis, Mo.) added. Following at least 20 minutes incubation at 23° C., the supernatants were assayed for glucose in an analyzer using D-glucose oxidase immobilized enzyme chemistry (Analyzer model 2300-STAT, YSI, Yellow Springs, Ohio). Purified rabbit liver glycogen (Sigma G8876) used as a standard indicated 98±4% recovery of dissolved glycogen and linearity within the range of observed liver glycogen concentrations (r=0.9994). All reagents were of analytical grade or better.
Statistical comparisons were by Student's t-test routines contained in the SYSTAT system (Systat, Evanston, Ill.). All results are reported as means ± standard error of the mean.

[4] = 30 micrograms 3 times daily, 18 patients starting study
[5] = 100 micrograms 3 times daily, 23 patients starting study
[6] = 300 micrograms 3 times daily, 21 patients starting study

EC50 (rat soleus muscle; 4 h): 0.438 nM
Molecule: CC[C@H](C)[C@H](NC(=O)[C@H](C)NC(=O)CNC(=O)[C@H](Cc1ccccc1)NC(=O)[C@H](CC(N)=O)NC(=O)[C@H](CC(N)=O)NC(=O)[C@H](CO)NC(=O)[C@H](CO)NC(=O)[C@H](Cc1c[nH]cn1)NC(=O)[C@@H](NC(=O)[C@H](CC(C)C)NC(=O)[C@H](Cc1ccccc1)NC(=O)[C@H](CC(N)=O)NC(=O)[C@H](C)NC(=O)[C@H](CC(C)C)NC(=O)[C@H](CCCNC(=N)N)NC(=O)[C@H](CCC(N)=O)NC(=O)[C@@H](NC(=O)[C@H](C)NC(=O)[C@@H]1CSSC[C@H](NC(=O)[C@@H](N)CCCCN)C(=O)N[C@@H](CC(N)=O)C(=O)N[C@@H]([C@@H](C)O)C(=O)N[C@@H](C)C(=O)N[C@@H]([C@@H](C)O)C(=O)N1)[C@@H](C)O)C(C)C)C(=O)N[C@@H](CC(C)C)C(=O)N[C@@H](CO)C(=O)N[C@@H](CO)C(=O)N[C@H](C(=O)N[C@@H](CC(N)=O)C(=O)N[C@H](C(=O)NCC(=O)N[C@@H](CO)C(=O)N[C@@H](CC(N)=O)C(=O)N[C@H](C(=O)N[C@@H](Cc1ccc(O)cc1)C(N)=O)[C@@H](C)O)C(C)C)[C@@H](C)O [human amylin]

Molecule: CC[C@H](C)[C@H](NC(=O)[C@@H]1CCCN1C(=O)CNC(=O)[C@H](Cc1ccccc1)NC(=O)[C@H](CC(N)=O)NC(=O)[C@H](CC(N)=O)NC(=O)[C@H](CO)NC(=O)[C@H](CO)NC(=O)[C@H](Cc1c[nH]cn1)NC(=O)[C@@H](NC(=O)[C@H](CC(C)C)NC(=O)[C@H](Cc1ccccc1)NC(=O)[C@H](CC(N)=O)NC(=O)[C@H](C)NC(=O)[C@H](CC(C)C)NC(=O)[C@H](CCCNC(=N)N)NC(=O)[C@H](CCC(N)=O)NC(=O)[C@@H](NC(=O)[C@H](C)NC(=O)[C@@H]1CSSC[C@H](NC(=O)[C@@H](N)CCCCN)C(=O)N[C@@H](CC(N)=O)C(=O)N[C@@H]([C@@H](C)O)C(=O)N[C@@H](C)C(=O)N[C@@H]([C@@H](C)O)C(=O)N1)[C@@H](C)O)C(C)C)C(=O)N[C@@H](CC(C)C)C(=O)N1CCC[C@H]1C(=O)N1CCC[C@H]1C(=O)N[C@H](C(=O)N[C@@H](CC(N)=O)C(=O)N[C@H](C(=O)NCC(=O)N[C@@H](CO)C(=O)N[C@@H](CC(N)=O)C(=O)N[C@H](C(=O)N[C@@H](Cc1ccc(O)cc1)C(N)=O)[C@@H](C)O)C(C)C)[C@@H](C)O [tripro-amylin, ^25,28,29 Pro-human-amylin]
side effect profile, measures of safety ([1]; 14-day tests): all measures of safety were satisfactory
Patients reporting any gastrointestinal symptoms [1, 4]: 5
Patients reporting nausea for more than 7 days [1, 4]: 1
Patients reporting other events resulting in early discontinuation [1, 4]: 0
Patients who withdrew from the study with nausea [1, 4]: 1
Patients reporting any gastrointestinal symptoms [1, 5]: 13
Patients reporting nausea for more than 7 days [1, 5]: 8
Patients reporting other events resulting in early discontinuation [1, 5]: 0
Patients who withdrew from the study with nausea [1, 5]: 1
Patients reporting any gastrointestinal symptoms [1, 6]: 20
Patients reporting nausea for more than 7 days [1, 6]: 11
Patients reporting other events resulting in early discontinuation [1, 6]: 0
Patients who withdrew from the study with nausea [1, 6]: 8
patients who reported nausea and also experienced vomiting on one or more occasions ([1]; mid- and high-dose groups): About 20%
glucose response to insulin challenge compared to placebo group [2]: did not measurably alter the glucose reponse

EC50 (rat soleus muscle; [amylin] 0 nM (nominal), read-out: Insulin dose response: EC50, Mean ± log SE (converted)): 1.16 ± 0.1 nM
EC50 (rat soleus muscle; [amylin] 3 nM (nominal), read-out: Insulin dose response: EC50, Mean ± log SE (converted)): 0.78 ± 0.12 nM
EC50 (rat soleus muscle; [amylin] 10 nM (nominal), read-out: Insulin dose response: EC50, Mean ± log SE (converted)): 1.52 ± 0.15 nM
EC50 (rat soleus muscle; [amylin] 30 nM (nominal), read-out: Insulin dose response: EC50, Mean ± log SE (converted)): 1.33 ± 0.2 nM
EC50 (rat soleus muscle; absence of amylin, pooled from 7 assays, ±0.07 log units, read-out: EC50 of the insulin response): 1.05 nM
Molecule: insulin: recombinant human insulin (Humulin-R, Eli Lilly) in soleus assay; Humulin-Ultralente for daily treatment of diabetic rats
Insulin dose response: Maximal response, Mean (rat soleus muscle; [amylin] 0 nM (nominal)): 4.09 μmol/g wet tissue/hr
Insulin dose response: Maximal response, Mean (rat soleus muscle; [amylin] 3 nM (nominal)): 3.45 μmol/g wet tissue/hr
Insulin dose response: Maximal response, Mean (rat soleus muscle; [amylin] 10 nM (nominal)): 3.12 μmol/g wet tissue/hr
Insulin dose response: Maximal response, Mean (rat soleus muscle; [amylin] 30 nM (nominal)): 2.13 μmol/g wet tissue/hr
Insulin dose response: Maximal response, Mean (rat soleus muscle; [amylin] 100 nM (nominal)): 1.15 μmol/g wet tissue/hr
Insulin dose response: Maximal response, Mean (rat soleus muscle; [amylin] 300 nM (nominal)): 0.93 μmol/g wet tissue/hr
increment in rate of glycogen labelling (rat soleus muscle; insulin dose response in absence of amylin, pooled from 7 assays): 3.7 fold
decrease in liver glycogen compared to normal rats ([3]; fed state): ~35%
liver glycogen concentration ([3]; normal rats 8.6 mg/g): 5.6 mg/g
